Experimental data from article PMC9230136 (Pharmaceutics, 2022).
Where two headings read alike, the source gives them in different places.

Columns and labels:
[1] = system: A549, MDA-MB-231, HeLa, HT-29 and Jurkat cancer cell lines; experiment: Antiproliferative activity over the panel of cancer cell lines; format: cell-based, human; conditions: for fold reduction in potency (vs 7y): MDA-MB-231 and HT-29 cells; for IC50: mean over the five cancer cell lines, read-out: mean IC50 (antiproliferative activity)
Procedure: (§1) Colon adenocarcinoma (HT-29) and T-cell leukemia (Jurkat) cells were grown in RPMI-1640 medium (Gibco, Milano, Italy). Promyelocytic leukemia cells (HL-60), non-small cell lung carcinoma (A549), cervix carcinoma (HeLa) and breast adenocarcinoma (MDA-MB-231) cells were grown in DMEM medium (Gibco, Milano, Italy). Both media were supplemented with 115 units/mL of penicillin G (Gibco, Milano, Italy), 115 μg/mL of streptomycin (Invitrogen, Milano, Italy) and 10% fetal bovine serum (Invitrogen, Milano, Italy). All the cell lines used were purchased from the American Type Culture Collection (ATCC, Manassas, VA, USA). Stock solutions (10 mM) of the compounds were obtained by dissolving them in DMSO.
(§2) The cells were seeded in 96-well plates at the appropriate density for each cell line. After 24 h, the cells were treated by performing serial 5-fold dilutions of the tested compounds starting from a concentration of 10 μM. All experimental conditions were tested in triplicate for statistical analysis. The plates were incubated for 72 h at 37 °C in a humidified 5% CO2 atmosphere. At the end of the incubation period, 10 μL of 100 μg/mL resazurin solution was added to each well; then, the plate was re-incubated for 3–4 h. The fluorescence of the wells in each plate was monitored using a Spark 10 M spectrophotometer (Tecan Group Ltd., Mannedorf, Switzerland) with a 535 nm excitation wavelength and a 600 nm emission wavelength.

[2] = system: Jurkat; experiment: Antiproliferative assay (resazurin, 72 h); format: cell-based, human; conditions: for IC50: Table 2, mean ± SE, 72 h; for fold increase in activity relative to 7ad: Jurkat cells
Procedure: as §1, §2

[3] = system: MDA-MB-231; experiment: Antiproliferative assay (resazurin, 72 h); format: cell-based, human; conditions: Table 2, mean ± SE, 72 h
Procedure: as §1, §2

[4] = system: A549; experiment: Antiproliferative assay (resazurin, 72 h); format: cell-based, human
Procedure: as §1, §2

[5] = system: HT-29; experiment: Antiproliferative assay (resazurin, 72 h); format: cell-based, human; conditions: Table 2, mean ± SE, 72 h
Procedure: as §1, §2

[6] = system: HeLa; experiment: Antiproliferative assay (resazurin, 72 h); format: cell-based, human; conditions: Table 2, mean ± SE
Procedure: as §1, §2

[7] = system: Bovine brain tubulin; experiment: Inhibition of tubulin polymerization; format: biochemical; conditions: for IC50: tubulin at 10 μM, read-out: Tubulin Assembly IC50 ± SD
Procedure: (§3) Bovine brain tubulin was purified as described previously. To evaluate the effects of the compounds on tubulin assembly in vitro [35], varying concentrations were preincubated with 10 μM tubulin in 0.8 M monosodium glutamate (pH 6.6) at 30 °C and the reaction mixtures then cooled to 0 °C. After addition of GTP, the mixtures were transferred to 0 °C cuvettes in Beckman Coulter (Brea, CA, USA) DU-7400/DU-7500 recording spectrophotometers equipped with electronic temperature controllers and warmed to 30 °C, and the assembly of tubulin was observed turbidimetrically. […] Inhibition of colchicine binding to tubulin was measured as described before, except that the reaction mixtures contained 0.5 μM tubulin and 5 μM each of [^3H]colchicine and test compound. Only one DEAE-cellulose filter was used per sample, and filtration was by gravity.

[8] = system: Bovine brain tubulin; experiment: Inhibition of [3H]colchicine binding to tubulin; conditions: tubulin 0.5 µM, [3H]colchicine 5 µM, compound 5 µM
Procedure: as §3

[9] = system: A549; conditions: read-out: IC50 (compared with 8u on A549); cited from earlier work
[10] = Homo sapiens, A549, Table 2, mean ± SE

IC50 [7] [nM]	IC50 [2] [nM]	IC50 [3] [nM]	IC50 ([4]; Table 2, mean ± SE) [nM]	IC50 [5] [nM]	IC50 [6] [nM]	Colchicine Binding % Inhibition ± SD [8] [%]	Structure (SMILES)	IC50 [9] [nM]	also measured
–	–	–	–	–	–	–	Cc1cc(Nc2ccc(Cl)cc2)n2nc(NCc3ccc4c(c3)OCO4)nc2n1 [Compound 8i, N^2-(Benzo[d][1,3]dioxol-5-ylmethyl)-N^7-(4-chlorophenyl)-5-methyl-[1,2,4]triazolo [1,5-a]pyrimidine-2,7-diamine]	–	melting point: 156 to 158 °C; fold reduction in potency (vs 7y) [1]: 2–3 fold; IC50 ([2]; Homo sapiens, Jurkat): 280 ± 50 nM; fold increase in activity relative to 7ad [2]: 3-4 fold; IC50 ([3]; Homo sapiens, MDA-MB-231): 940 ± 340 nM; IC50 [4, 10]: 810 ± 220 nM; IC50 ([5]; Homo sapiens, HT-29): 600 ± 160 nM; IC50 ([6]; Homo sapiens, HeLa): 190 ± 120 nM
–	–	–	–	–	–	–	Cc1cc(Nc2ccc(Br)cc2)n2nc(NCc3ccc4c(c3)OCO4)nc2n1 [Compound 8l, N^2-(Benzo[d][1,3]dioxol-5-ylmethyl)-N^7-(4-bromophenyl)-5-methyl-[1,2,4]triazolo [1,5-a]pyrimidine-2,7-diamine]	–	melting point: 182 to 184 °C; fold reduction in potency (vs 7y) [1]: 2–3 fold; IC50 ([2]; Homo sapiens, Jurkat): 260 ± 50 nM; fold increase in activity relative to 7ad [2]: 3-4 fold; IC50 ([3]; Homo sapiens, MDA-MB-231): 1270 ± 450 nM; IC50 [4, 10]: 430 ± 180 nM; IC50 ([5]; Homo sapiens, HT-29): 420 ± 20 nM; IC50 ([6]; Homo sapiens, HeLa): 220 ± 40 nM
390 ± 10	83 ± 20	200 ± 70	70 ± 10	53 ± 1	48 ± 1	88 ± 3	Cc1cc(Nc2ccc(Cl)cc2)n2nc(NCCCc3ccccc3)nc2n1 [Compound 8s]	–	fold more potent than CA-4, tubulin polymerization [7]: about 2 fold; IC50 [1]: 91 nM
380 ± 20	150 ± 14	120 ± 40	48 ± 10	83 ± 20	22 ± 10	84 ± 2	Cc1cc(Nc2ccc(Br)cc2)n2nc(NCCCc3ccccc3)nc2n1 [Compound 8u]	–	fold more potent than CA-4, tubulin polymerization [7]: about 2 fold; IC50 [1]: 83 nM
430 ± 50	160 ± 10	350 ± 10	110 ± 30	83 ± 20	69 ± 10	70 ± 3	C#Cc1cccc(Nc2cc(C)nc3nc(NCCCc4ccccc4)nn23)c1 [Compound 8v]	–	–
–	–	–	–	–	–	–	CO[C@H]1C(=O)[C@]2(C)[C@@H](OC)C[C@H]3OC[C@@]3(OC(C)=O)[C@H]2[C@H](OC(=O)c2ccccc2)[C@]2(O)C[C@H](OC(=O)[C@H](O)[C@@H](NC(=O)OC(C)(C)C)c3ccccc3)C(C)=C1C2(C)C [cabazitaxel]	15	–
–	–	–	–	–	–	–	CC(=O)O[C@@]12CO[C@@H]1C[C@H](O)[C@@]1(C)C(=O)[C@H](O)C3=C(C)[C@@H](OC(=O)[C@H](O)[C@@H](NC(=O)OC(C)(C)C)c4ccccc4)C[C@@](O)([C@@H](OC(=O)c4ccccc4)[C@H]21)C3(C)C [docetaxel]	19.5	–
–	–	–	–	–	–	–	COc1cccc2c1C(=O)c1c(O)c3c(c(O)c1C2=O)C[C@@](O)(C(=O)CO)C[C@@H]3O[C@H]1C[C@H](N)[C@H](O)[C@H](C)O1 [doxorubicin]	11600	–
–	–	–	–	–	–	–	CC(=O)O[C@H]1C(=O)[C@@]2(C)[C@H]([C@H](OC(=O)c3ccccc3)[C@]3(O)C[C@H](OC(=O)[C@H](O)[C@@H](NC(=O)c4ccccc4)c4ccccc4)C(C)=C1C3(C)C)[C@]1(OC(C)=O)CO[C@@H]1C[C@@H]2O [paclitaxel]	3.5	–
